Values of other authors, collected in patent publication US10172810B2 (priority 2003, dated 2019).

Conditions: pH 6.8

CN1CCCC1c1cccnc1 (stereo not shown) [nicotine]
nicotine in the free base form: about 10%
